Source: US12077503B2, “Substituted cyclic amides and their use as herbicides” (FMC CORPORATION, priority 2015, dated 2024)

Legend:
Type in all cases: in vivo
[1] = test system: speedwell (bird's-eye speedwell, Veronica persica); assay: Test D preemergence; details: scale 0 to 100
In short: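 Test chemicals, formulated in a non-phytotoxic solvent blend including surfactant, are applied preemergence to seeded silt loam soil. Response is judged visually against controls after approximately 21 d in a controlled environment, on a scale where 0 is no effect and 100 is complete control.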

[2] = test system: dayflower, VA (Virginia dayflower, Commelina virginica); assay: Test E preemergence; details: scale 0 to 100
In short: (§1)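 Seeds planted in silt loam were treated preemergence, and plants in Redi-Earth peat medium at 2 to 18 cm (1- to 4-leaf) were treated postemergence, with test chemicals in non-phytotoxic solvent with surfactant. Plants kept in greenhouse 14 to 21 d, then visually rated against controls on a 0–100 scale (0 no effect, 100 complete control).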

[3] = test system: johnsongrass (Sorghum halepense); assay: Test E preemergence; details: scale 0 to 100
In short: as §1

[4] = test system: lambsquarters (Chenopodium album); assay: Test E preemergence; details: scale 0 to 100
In short: as §1

[5] = test system: morningglory (Ipomoea coccinea); assay: Test E preemergence; details: scale 0 to 100
In short: as §1

[6] = test system: pigweed, palmer (palmer pigweed, Amaranthus palmeri); assay: Test E preemergence; details: scale 0 to 100
In short: as §1

[7] = test system: ragweed (common ragweed, Ambrosia elatior); assay: Test E preemergence; details: scale 0 to 100
In short: as §1

[8] = test system: barnyardgrass (Echinochloa crus-galli); assay: Test G Pre-Emergence Protocol; details: Echinochloa crus-galli, pre-emergence, 312 h, evaluated after 13 days; for pest or weed control at 15.625 g/ha: 15.625 g ai/ha, read-out: Barnyard grass damage rating (100=total damage to plant; 0=no damage to plant); for pest or weed control at 62.5 g/ha: 62.5 g ai/ha, 100=total damage to plant, 0=no damage to plant, read-out: plant damage rating, Barnyardgrass; for pest or weed control at 250 g/ha: 250 g ai/ha, read-out: Barnyardgrass damage rating (100=total damage to plant; 0=no damage to plant)
Method: (§2) Seeds of corn (Zea mays), giant foxtail (Setaria faberi), barnyardgrass (Echinochloa crus-galli), ivy-leaved morning glory (Ipomoea hederacea), redroot pigweed (Amaranthus retroflexus) and velvetleaf (Abutilon theophrasti) were sown in standard soil in pots. After cultivation for one day under controlled conditions in a glasshouse (at 24/16° C., day/night; 14 hours light; 65% humidity), the plants were sprayed with an aqueous spray solution derived from the formulation of the technical active ingredient in acetone/water (50:50) solution containing 0.5% Tween 20 (polyoxyethylene sorbitan monolaurate, CAS RN 9005-64-5) to give a final dose of 15.625, 62.5 or 250 g/ha of test compound.
(§3) The test plants were then grown on under controlled conditions in a glasshouse (at 24/16° C., day/night; 14 hours light; 65% humidity) and watered twice daily. After 13 days the test was evaluated (100=total damage to plant; 0=no damage to plant). A dash (-) means no test result.

[9] = test system: ivy-leaved morning glory (Ipomoea hederacea); assay: Test G Pre-Emergence Protocol; details: Ipomoea, pre-emergence, 312 h, evaluated after 13 days; for pest or weed control at 15.625 g/ha: 15.625 g ai/ha, read-out: Morning-glory, Ivy-leaved damage rating (100=total damage to plant; 0=no damage to plant); for pest or weed control at 62.5 g/ha: 62.5 g ai/ha, 100=total damage to plant, 0=no damage to plant, read-out: plant damage rating, Morningglory, Ivy-leaved; for pest or weed control at 250 g/ha: 250 g ai/ha, read-out: Morningglory, Ivy-leaved damage rating (100=total damage to plant; 0=no damage to plant)
Method: as §2, §3

[10] = test system: velvetleaf (Abutilon theophrasti); assay: Test G Pre-Emergence Protocol; details: Abutilon theophrasti, pre-emergence, 312 h, evaluated after 13 days; for pest or weed control at 15.625 g/ha: 15.625 g ai/ha; for pest or weed control at 15.625 g/ha / pest or weed control at 250 g/ha: read-out: Velvetleaf damage rating (100=total damage to plant; 0=no damage to plant); for pest or weed control at 62.5 g/ha: 62.5 g ai/ha, 100=total damage to plant, 0=no damage to plant, read-out: plant damage rating, Velvetleaf; for pest or weed control at 250 g/ha: 250 g ai/ha
Method: as §2, §3

SMILES	Plant response rating: Dayflower, VA ([2]; 31 g ai/ha)	Plant response rating: Dayflower, VA ([2]; 62 g ai/ha)	Plant response rating: Dayflower, VA ([2]; 125 g ai/ha)	Plant response rating: Dayflower, VA ([2]; 250 g ai/ha)	Plant response rating: Johnsongrass ([3]; 31 g ai/ha)	Plant response rating: Johnsongrass ([3]; 62 g ai/ha)	Plant response rating: Johnsongrass ([3]; 125 g ai/ha)	Plant response rating: Lambsquarters ([4]; 62 g ai/ha)	Plant response rating: Lambsquarters ([4]; 125 g ai/ha)	Plant response rating: Lambsquarters ([4]; 250 g ai/ha)	Plant response rating: Morningglory ([5]; 31 g ai/ha)	Plant response rating: Morningglory ([5]; 62 g ai/ha)	Plant response rating: Morningglory ([5]; 125 g ai/ha)	Plant response rating: Morningglory ([5]; 250 g ai/ha)	Plant response rating: Pigweed, Palmer ([6]; 31 g ai/ha)	Plant response rating: Pigweed, Palmer ([6]; 62 g ai/ha)	Plant response rating: Pigweed, Palmer ([6]; 125 g ai/ha)	Plant response rating: Pigweed, Palmer ([6]; 250 g ai/ha)	Plant response rating: Ragweed ([7]; 31 g ai/ha)	Plant response rating: Ragweed ([7]; 250 g ai/ha)	other results
CN1CC(c2ccc(C(F)(F)F)cc2)C(C(=O)Nc2ccccc2S(C)(=O)=O)C1=O (stereo not shown) [Compound 624]	0	0	30	50	0	0	35	0	50	85	10	20	50	40	0	25	20	30	20	30	Plant response rating: Speedwell ([1]; 31 g ai/ha): 90; Plant response rating: Speedwell ([1]; 62 g ai/ha): 90; Plant response rating: Speedwell ([1]; 125 g ai/ha): 100; Plant response rating: Speedwell ([1]; 250 g ai/ha): 100; Plant response rating: Lambsquarters ([4]; 31 g ai/ha): 0; Plant response rating: Ragweed ([7]; 62 g ai/ha): 20; Plant response rating: Ragweed ([7]; 125 g ai/ha): 30
CN1CC(c2cccc(C(F)(F)F)c2)C(C(=O)Nc2cccc(F)c2F)C1=O (stereo not shown) [Compound 636]	0	0	35	65	90	95	95	90	90	90	0	0	0	0	0	10	80	90	0	0	Plant response rating: Johnsongrass ([3]; 250 g ai/ha): 98; Plant response rating: Lambsquarters ([4]; 31 g ai/ha): 90
CN1CC(c2cccc(C(F)(F)F)c2)C(C(=O)Nc2ccccc2S(C)(=O)=O)C1=O (stereo not shown) [Compound 637]	0	0	0	20	0	0	25	0	90	80	0	0	35	35	0	0	0	65	0	85	Plant response rating: Speedwell ([1]; 31 g ai/ha): 15; Plant response rating: Speedwell ([1]; 62 g ai/ha): 60; Plant response rating: Speedwell ([1]; 125 g ai/ha): 100; Plant response rating: Speedwell ([1]; 250 g ai/ha): 100; Plant response rating: Johnsongrass ([3]; 250 g ai/ha): 60; Plant response rating: Ragweed ([7]; 62 g ai/ha): 0; Plant response rating: Ragweed ([7]; 125 g ai/ha): 20
Cc1ccc([C@H]2CN(C)C(=O)[C@@H]2C(=O)Nc2cccnc2F)cc1 [Compound 1398]	–	–	–	–	–	–	–	–	–	–	–	–	–	–	–	–	–	–	–	–	pest or weed control at 15.625 g/ha [8]: 80%; pest or weed control at 62.5 g/ha [8]: 90%; pest or weed control at 250 g/ha [8]: 90%; pest or weed control at 15.625 g/ha [9]: 0%; pest or weed control at 62.5 g/ha [9]: 60%; pest or weed control at 250 g/ha [9]: 80%; pest or weed control at 15.625 g/ha [10]: 0%; pest or weed control at 62.5 g/ha [10]: 60%; pest or weed control at 250 g/ha [10]: 80%
Cc1ccc([C@H]2CN(C)C(=O)[C@@H]2C(=O)Nc2ccc(F)nc2F)cc1 [Compound 1402]	–	–	–	–	–	–	–	–	–	–	–	–	–	–	–	–	–	–	–	–	pest or weed control at 15.625 g/ha [8]: 80%; pest or weed control at 62.5 g/ha [8]: 90%; pest or weed control at 250 g/ha [8]: 90%; pest or weed control at 15.625 g/ha [9]: 40%; pest or weed control at 62.5 g/ha [9]: 70%; pest or weed control at 250 g/ha [9]: 80%; pest or weed control at 15.625 g/ha [10]: 0%; pest or weed control at 62.5 g/ha [10]: 70%; pest or weed control at 250 g/ha [10]: 80%
